#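 Tested at 5 concentrations; 48 h exposure; 96-well plates; endpoints linearly interpolated, else capped at highest concentration. GI50 marks 50% less growth. TGI marks complete inhibition of growth.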
# Assays:
# Test in all cases: inhibition of tumour cell growth, NCI panel, 48 h
# [1] = test system: HCC-2998 colon
# [2] = test system: SNB-19 CNS
# [3] = test system: UACC-62 melanoma
# [4] = test system: ACHN renal
# [5] = test system: COLO 205 colon
# [6] = test system: UO-31 renal
# [7] = test system: MALME-3M melanoma
# [8] = test system: HCT-116 colon
# [9] = test system: MDA-MB-435
# [10] = test system: A498 renal
SMILES,TGI [1] [µM],TGI [2] [µM],TGI [3] [µM],TGI [4] [µM],TGI [5] [µM],TGI [6] [µM],TGI [7] [µM],TGI [8] [µM],TGI [9] [µM],TGI [10] [µM],GI50 [1] [µM],GI50 [2] [µM],GI50 [3] [µM],GI50 [4] [µM],GI50 [10] [µM],GI50 [6] [µM],GI50 [7] [µM],GI50 [8] [µM]
CCOC(=O)C1=C(C(=O)OCC)C2c3ccccc3C=CN2C(C(=O)OCC)=C(SC)S1 (stereo unspecified),> 100,> 100,> 100,> 100,> 100,> 100,> 100,> 100,,,,,,,,,,
O=C(O)c1nc2nc(Cl)c(Cl)nc2[nH]1,,> 100,> 100,> 100,> 100,,> 100,> 100,> 100,> 100,,,,,,,,
O=S(=O)(N/N=C/c1cccc(/C=N/NS(=O)(=O)c2ccccc2)c1)c1ccccc1,> 100,,> 100,> 100,> 100,> 100,> 100,> 100,,> 100,,,,,,,,
CCCCN(CCCC)C(=O)C(=O)C(C(=O)c1ccc(OC)cc1)c1ccc(OC)cc1 (stereo unspecified),> 100,> 100,> 100,> 100,> 100,> 100,> 100,> 100,,,,,,,,,,
COc1ccc(OC)c(N2CC(N)C2=O)c1 (stereo unspecified),> 100,> 100,> 100,> 100,> 100,> 100,> 100,> 100,,> 100,,,,,,,,
COc1cc(C2CC(C)(O)Oc3cc4c(cc32)OCO4)cc(OC)c1OC (stereo unspecified),34.8,> 100,> 100,> 100,2.92,,,> 100,,> 100,,,,,,,,
Cc1ccc(Oc2ccc(C)cc2N)cc1,> 100,> 100,> 100,,> 100,> 100,> 100,> 100,,> 100,,,,,,,,
CC(=O)NNc1nc(C)c(C(=O)/C=C/c2ccc(NC(C)=O)cc2)s1,> 100,> 100,> 100,> 100,> 100,> 100,> 100,,,> 100,,,,,,,,
CC(=O)O/N=C(/C)c1ccccc1O,> 100,> 100,> 100,> 100,> 100,> 100,> 100,> 100,,,,,,,,,,
O=C(Nc1ccccc1-c1nn(C(=S)Nc2ccccc2)c(=S)n(C(=S)Nc2ccccc2)c1=O)C(F)(F)F,> 72.5,> 100,44.4,> 95.6,44.4,50.3,> 79.1,> 51.4,,> 76.6,,,,,,,,
COC(=O)C(CCCN1C(=O)c2ccccc2C1=O)C(=O)OC,> 100,> 100,> 100,> 100,> 100,> 100,> 100,> 100,,> 100,,,,,,,,
COc1ccc(C2[C@@H](c3ccccc3)C(=O)N2c2cc(OC)c(OC)c(OC)c2)cc1F (stereo partly specified),> 100,> 100,> 100,> 100,,> 100,> 100,10.4,,0.0861,0.0394,0.0499,0.0543,0.044,0.027,0.0771,> 100,0.0324
